Source: patent US11377444B2, “Pyridopyrimidine compounds acting as mTORC 1/2 dual inhibitors” (MEDSHINE DISCOVERY INC., priority 2017, dated 2022)
Read-outs that look alike come from different tables or passages of the source. One block for each molecule: values may come before it.

Assays:
[1] = molecular target: T1, mTOR kinase (mTORC1 and mTORC2 kinase complex) (Homo sapiens, UniProt P42345); assay: In vitro evaluation of mTOR kinase inhibitory activity (DiscoverX ligand-bead competition binding, qPCR readout)
T1 construct: purchased DiscoverX; host or cells: HEK-293
Protocol: Experimental Embodiment 1: In Vitro Evaluation of mTOR Kinase Inhibitory Activity This experiment was performed by DiscoverX. All materials and methods were obtained from DiscoverX.
Kinase activity analysis.
1. Labeled mTOR kinase was stably expressed in HEK-293 cells.
2. Streptavidin magnetic beads were treated with biotinylated small molecule ligands at room temperature for 30 minutes to produce affinity resin for kinase analysis;
3. Ligand beads were blocked with excess biotin and washed with buffer (1% bovine serum albumin, […]) to remove unbound ligand and non-specifically bound ligand;
4. The assembly of kinase and ligand and affinity beads, and the binding reaction between the compound and the three were performed in buffer (20% blocking buffer, 0.17x phosphate buffer, 0.05% Tween […]);
5. The test compounds were dissolved in dimethyl sulfoxide;
6. All test compounds were dissolved in DMSO, and then directly diluted […]
7. The solution was placed in a 384-well polypropylene plate, wherein the volume of each well was 0.02 mL;
8. The plate was shaked for an hour at room temperature;
9. The plate was washed with buffer (1× PBS, 0.05% Tween 20);
10. The affinity beads were resuspended in buffer (1× PBS, 0.05% Tween […] non-biotin affinity ligand) and incubated at room temperature for 30 minutes;
11. The kinase concentration in the eluate was deteced by qPCR.

MCF-7 cell = assay: Cell proliferation inhibitory activity (Cell-Titer-Glo), MCF-7; format: cell-based; settings: Homo sapiens, MCF7, 72 h; 3 days incubation
Source text: (§1) Experimental Embodiment 2: Evaluation of Cell Proliferation Inhibitory Activity
(§2) Experiment objective: To detect cell proliferation inhibitory activity of the tested compounds.
(§3) Experimental principle: The luciferase in the Cell-Titer-Glo reagent produces oxyluciferin using luciferin, oxygen and ATP as reaction substrates, and releases energy in the form of light. Since the reaction of luciferase requires ATP, the total amount of light generated by the reaction is proportional to the total amount of ATP that reflects cell viability.
(§4) Cell lines: MCF-7 cell line […], HT-29 cell line (ATCC-HTB-38), OE21 (ECACC-96062201), NCI-N87 cell line (ATCC-CRL-5822)
(§5) Cell culture medium: (RPMI 1640 culture medium (Invitrogen #1868546; 10% serum Invitrogen #1804958; L-glutamine 1×, Invitrogen #1830863; dual antibiotic Hyclone #J170012))
(§6) Cell Titer-Glo® Luminescent Cell Viability Assay Kit (Promega #G7573)
(§7) The cells were inoculated in a 384- or 96-well plate with a density of 1000 cells per well and 25 μL per well according to the instructions of the cell inoculating plate. The edge wells were not inoculated with cells, and was supplemented with […].
(§8) (i) The mother solution of the compound was 10 mM, and diluted with DMSO to an initial concentration of 4 mM. The compound was added to the compound mother solution, 9 μL per well.
(§9) (ii) The compound was diluted with ECHO liquid-handling workstation. Each well of the cell plate was added with 125 nL compound. Each well of the cell wells in 2nd column and 23rd column was added with 125 nL DMSO, and each of the PBS wells in 1st column and 24th column was added with 125 nL DMSO.
(§10) (iii) Each well of the cell plate was supplemented with 25 μL culture medium, the final volume in each well of the cell plate was 50 μL, […] 3 times dilution, 10 concentrations, each concentration was duplicated in left and right wells, the final DMSO concentration was 0.25%.
(§11) 2.3. After addition of the compound, centrifugation was performed at 1000 rpm for 1 min, and the cell plate was placed in a 37° C., 5% CO2 incubator for 3 days.
(§12) The cell plate was taken out from the incubator and equilibrated at room temperature for 30 minutes. 25 μL Cell-Titer-Glo reagent was added to each well, shaken for one minute to mix thoroughly, centrifuged at 1000 rpm for 1 minute. After 10 minutes, the plate was read on PerkinElmer Envision with a […] reading time was set at 0.2 second.

HT-29 cell = assay: Cell proliferation inhibitory activity (Cell-Titer-Glo), HT-29; format: cell-based; settings: Homo sapiens, HT-29, 72 h, 3 days incubation
Source text: as §1, §2, §3, §4, §5, §6, §7, §8, §9, §10, §11, §12

OE21 cell = assay: Cell proliferation inhibitory activity (Cell-Titer-Glo), OE21; format: cell-based; settings: OE21, 72 h; 3 days incubation
Source text: as §1, §2, §3, §4, §5, §6, §7, §8, §9, §10, §11, §12

N87 cell = assay: Cell proliferation inhibitory activity (Cell-Titer-Glo), N87; format: cell-based; settings: 72 h; 3 days incubation
Source text: as §1, §2, §3, §4, §5, §6, §7, §8, §9, §10, §11, §12

[2] = Pharmacokinetic evaluation in plasma after IV and PO administration; format: in vivo; settings: female Balb/c mice; for MRT inf: read-out: MRT0-inf; for MRT last: read-out: MRT0-last
Protocol: Experimental Embodiment 3: Pharmacokinetic Evaluation
The test compound was mixed with […] (Cremophor EL), vortexed and sonicated to prepare a 1 mg/mL near-clear solution, which was filtered with a microporous filter membrane for future use. Female Balb/c mice of 18 to 20 grams were selected and the solution of the test compound was administered intravenously at a dose of 1 or 2 mg/kg. The test compound was mixed with an aqueous solution of 1% Tween 80, 9% polyethylene glycol 400, and 90% water, vortexed and sonicated to prepare 1 mg/mL near-clear solution, which was filtered with a microporous filter membrane for future use.
Female Balb/c mice of 18 to 20 grams were selected, and the solution of the test compound was orally administered at a dose of 2 or 10 mg/kg. The whole blood was collected at a certain time, and prepared into plasma. The drug concentration was analyzed by LC-MS/MS, and the pharmacokinetic parameters were calculated using Phoenix WinNonlin software (Pharsight Corporation, USA).

Kd [1]: 0.85 nM
IC50 (MCF-7 cell): 155 nM
IC50 (HT-29 cell): 485 nM
AUCExtra ([2]; IV 2 mg/kg): 0.124%
AUMCExtra ([2]; IV 2 mg/kg): 1.27%
Tlast ([2]; IV 2 mg/kg): 12 h
AUCExtra ([2]; PO 10 mg/kg): 0.174%
AUMCExtra ([2]; PO 10 mg/kg): 1.83%
Tlast ([2]; PO 10 mg/kg): 24.0 h
AUC(0-inf) ([2]; mouse, IV 2 mg/kg): 7.42 µM·h
AUC(0-t) ([2]; mouse, IV 2 mg/kg): 7.41 µM·h
C0 ([2]; mouse, IV 2 mg/kg): 7.2 µM
clearance ([2]; mouse, IV 2 mg/kg): 9.45 mL/min/kg
half-life ([2]; mouse, IV 2 mg/kg): 1.65 h
MRT inf ([2]; mouse, IV 2 mg/kg): 1.38 h
MRT last ([2]; mouse, IV 2 mg/kg): 1.2 h
Vd ([2]; mouse, IV 2 mg/kg, read-out: Vdss): 0.793 L/kg
AUC(0-inf) ([2]; mouse, PO 10 mg/kg): 35 µM·h
AUC(0-t) ([2]; mouse, PO 10 mg/kg): 35 µM·h
Cmax ([2]; mouse, PO 10 mg/kg): 15.1 µM
Tmax ([2]; mouse, PO 10 mg/kg): 0.25 h
bioavailability ([2]; mouse, PO 10 mg/kg): 94.4%
half-life ([2]; mouse, PO 10 mg/kg): 3.33 h
MRT inf ([2]; mouse, PO 10 mg/kg): 2.74 h
MRT last ([2]; mouse, PO 10 mg/kg): 2.69 h
Structure (SMILES): CNC(=O)c1cccc(-c2ccc3c(N4CCOC[C@@H]4C)nc(N4CCOC5(CC5)C4)nc3n2)c1 [Embodiment 1]
IC50 (OE21 cell): 313 nM
IC50 (N87 cell): 61 nM

Kd [1]: 0.44 nM
IC50 (HT-29 cell): 442 nM
Structure (SMILES): CNC(=O)c1cccc(-c2ccc3c(N4CCOC[C@@H]4C)nc(N4CC5(CCC5)OC[C@@H]4C)nc3n2)c1 [Embodiment 30]
IC50 (OE21 cell): 158 nM
